Experimental data as given in US4722922A, “Tetrapeptide amides in the treatment of hypertension” (priority 1985, dated 1988).
Where a name gives a salt, the structure may show the parent alone. Non-standard residues stand in square brackets, D forms with d. Residues, ends and D or L forms follow the SMILES beside them. No end group written: not given here. *: point of attachment. dTyr(3-tBu) = CC(C)(C)c1cc(C[C@@H](N)C(=O)O)ccc1O; Tyr(3-tBu) = CC(C)(C)c1cc(C[C@H](N)C(=O)O)ccc1O; dMet(O2) = CS(=O)(=O)CC[C@@H](N)C(=O)O; Sta = CC(C)C[C@H](N)[C@@H](O)CC(=O)O; Isovaleryl = CC(C)CC(=O)*; Ahx = NCCCCCC(=O)O

Key:
human renin = biological target: T1, human renin (Homo sapiens, UniProt P00797); assay: Inhibition of Human Renin (angiotensin I formation, radioimmunoassay); format: biochemical; conditions: for % Inhibition: human renin test, 0.1 mGU/ml human renin, human plasma, two-hour incubation at 37° C., pH 7.5, test compound concentration not given
T1 construct: human renin, isolated from kidneys, was obtained from the World Health Organization International Laboratory for Biological Standards; tissue World Health Organization International Laboratory for Biological Standards (National Institute for Biological Standards and Control, London, England); host or cells: human kidney
T1 sequence (P00797 67-406): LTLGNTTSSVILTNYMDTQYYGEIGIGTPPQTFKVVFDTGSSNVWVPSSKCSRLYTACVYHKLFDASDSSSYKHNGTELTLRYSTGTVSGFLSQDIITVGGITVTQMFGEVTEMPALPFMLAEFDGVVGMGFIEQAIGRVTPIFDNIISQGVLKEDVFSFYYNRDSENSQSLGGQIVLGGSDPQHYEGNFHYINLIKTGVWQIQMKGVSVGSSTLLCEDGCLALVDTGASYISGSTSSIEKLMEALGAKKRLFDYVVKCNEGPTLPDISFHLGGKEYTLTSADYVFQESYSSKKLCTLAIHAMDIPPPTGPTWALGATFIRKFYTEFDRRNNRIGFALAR
Description: The renin inhibition activity of the compounds of this invention illustrated in the examples was tested by the following method.
Inhibition of Human Renin
International reference standard human renin, isolated from kidneys, was obtained from the World Health Organization International Laboratory for Biological Standards (National Institute for Biological Standards and Control, London, England). Renin activity is defined in "Goldblatt units" (GU), the quantity that, when injected directly into the blood stream of an unanesthetized dog, raises the direct mean femoral artery blood pressure by 30 mm Hg in about two minutes. E. Haas, L. Lewis, P. Scipione, and T. J. Koshy, Hypertension, 1, 112-117 (1979). Human angiotensinogen was used as an unisolated component of human blood plasma. The enzyme inhibition assay, see K. Poulsen, J. Burton, and E. Haber, Biochemistry, 12, 3877-3882 (1973), involved a two-hour incubation at 37° C. of the following final concentrations of reagents (0.25 ml total volume): 0.1 mGU/ml human renin; 0.05 ml human plasma; 6 mM disodium EDTA; 2.4 mM phenylmethylsulfonyl fluoride and 1.5 mM 8-hydroxyquinoline (angiotensinase inhibitors); 0.4 mg/ml bovine serum albumin; and 0.024 neomycin sulfate in 100 mM Tris-acetate buffer (pH 7.5). The enzymatic reaction was terminated by boiling the mixture for ten minutes. The quantity of angiotensin I formed was determined by radioimmunoassay, using the general method used in the angiotensin I radioimmunoassay kit of New England Nuclear.

[1] = system: renal-ligated hypertensive rat; assay: Renal-ligated Hypertensive Rat Assay; format: in vivo, Sprague Dawley rats; conditions: renal-ligated rats
Description: Renal-ligated Hypertensive Rat Assay
Male Sprague Dawley rats aged 11 to 15 weeks old were used in this test. […] Test compounds were administered intra-arterially at a dose of 10 mg per kg of body weight, and blood pressure changes were monitored directly at 5, 10, and 15 minutes after injection.

Row | Molecule | % Inhibition (human renin) | further results
1 | COC(=O)CCCCCNC(=O)[C@H](Cc1ccccc1)NC(=O)CNC(=O)[C@@H](CCSC)NC(=O)[C@@H](N)Cc1ccc(OC(=O)OCC(C)C)c(C(C)(C)C)c1.Cl (racemic) [Example 69, O-(2-methylpropoxycarbonyl)-3-t-butyl-tyrosyl-D-methionylglycyl-N-(6-methoxy-6-oxohexyl)-L-phenylalaninamide monohydrochloride] | 43% | 
2 | CC(C)CC(=O)N[C@H](C(=O)N[C@H](C(=O)N[C@@H](CC(C)C)[C@@H](O)CC(=O)N[C@@H](C)C(=O)N[C@@H](CC(C)C)[C@@H](O)CC(=O)O)C(C)C)C(C)C [Pepstatin] (Isovaleryl-VV[Sta]A[Sta]-OH) |  | plasma renin activity ([1]; same test conditions): significantly reduced; mean arterial blood pressure ([1]; test compounds given intra-arterially, pressure read at 5, 10 and 15 minutes after injection): significantly reduced
3 | PHPFHLFVY [Pro-[Phe^6]octapeptide, prolylhistidylprolylphenylalanylhistidylleucylphenylalanylvalyltyrosine, reference compound] |  | activity in the human renin inhibition assay (human renin; stated in words): active
4 | O-(2-methylpropoxycarbonyl)-2,3,6-trimethyltyrosyl-[4-(methylsulfinyl)-D-2- aminobutanoyl]glycyl-N-(6-methoxy-6-oxohexyl)-L-phenylalaninamide monohydrochloride sesquihydrate [Example 58] | 26% | 
5 | 2,4-dimethyl-3-hydroxyphenylalanyl-D-methionylglycyl-N-(6-methoxy-6-oxohexyl)-L-phenylalaninamide monohydrochloride hemihydrate [Example 77] | 73% | 
6 | O-(2-methylpropoxycarbonyl)-2-methyltyrosyl-[4-(methylsulfinyl)-D-2-aminobutanoyl]-glycyl-N-(6-methoxy-6-oxohexyl)-L-phenylalaninamide monohydrochloride hemihydrate [Example 64] | 22% | 
7 | O-(2-methylpropoxycarbonyl)-2-methyltyrosyl-D-methionylglycyl-N-(6-methoxy- 6-oxohexyl)-L-phenylalaninamide monohydrochloride hemihydrate [Example 63] | 23% | 
8 | O-(2-methylpropoxycarbonyl)-3-t-butyltyrosyl-[4-(methylsulfinyl)-D-2-aminobutanoyl]glycyl-N-(6-methoxy-6-oxohexyl)-L-phenylalaninamide monohydrochloride hemihydrate [Example 70] | 25% | 
9 | COC(=O)CCCCCNC(=O)[C@H](Cc1ccccc1)NC(=O)CNC(=O)[C@@H](CCS(C)(=O)=O)NC(=O)[C@H](N)Cc1ccc(O)c(C(C)(C)C)c1 [Example 74, 3-t-butyl-D-tyrosyl-[4-(methylsulfonyl)-D-2-aminobutanoyl]glycyl-N-(6-methoxy-6-oxohexyl)-L-phenylalaninamide monohydrochloride hemihydrate] (H-[dTyr(3-tBu)][dMet(O2)]GF[Ahx]-OMe) | 28% | 
10 | COC(=O)CCCCCNC(=O)[C@H](Cc1ccccc1)NC(=O)CNC(=O)[C@@H](CCS(C)(=O)=O)NC(=O)[C@@H](N)Cc1ccc(O)c(C(C)(C)C)c1 [Example 73, 3-t-butyl-L-tyrosyl-[4-(methylsulfonyl)-D-2-aminobutanoyl]glycyl-N-(6-methoxy-6-oxohexyl)-L-phenylalaninamide monohydrochloride hemihydrate] (H-[Tyr(3-tBu)][dMet(O2)]GF[Ahx]-OMe) | 21% | 
